# Experiments:
# [1] = biological target: T1, human c-Mpl-introduced Ba/F3 cell (Homo sapiens, UniProt P40238); assay: Test Example 2: human c-Mpl-introduced Ba/F3 cell proliferative activity; format: cell-based; details: concentration exhibiting 30% proliferation; 100% = positive control (Example 315 of Patent Document 1) at 1 μM
# T1 construct: expressed in transfected cells
# T1 sequence (P40238 26-635): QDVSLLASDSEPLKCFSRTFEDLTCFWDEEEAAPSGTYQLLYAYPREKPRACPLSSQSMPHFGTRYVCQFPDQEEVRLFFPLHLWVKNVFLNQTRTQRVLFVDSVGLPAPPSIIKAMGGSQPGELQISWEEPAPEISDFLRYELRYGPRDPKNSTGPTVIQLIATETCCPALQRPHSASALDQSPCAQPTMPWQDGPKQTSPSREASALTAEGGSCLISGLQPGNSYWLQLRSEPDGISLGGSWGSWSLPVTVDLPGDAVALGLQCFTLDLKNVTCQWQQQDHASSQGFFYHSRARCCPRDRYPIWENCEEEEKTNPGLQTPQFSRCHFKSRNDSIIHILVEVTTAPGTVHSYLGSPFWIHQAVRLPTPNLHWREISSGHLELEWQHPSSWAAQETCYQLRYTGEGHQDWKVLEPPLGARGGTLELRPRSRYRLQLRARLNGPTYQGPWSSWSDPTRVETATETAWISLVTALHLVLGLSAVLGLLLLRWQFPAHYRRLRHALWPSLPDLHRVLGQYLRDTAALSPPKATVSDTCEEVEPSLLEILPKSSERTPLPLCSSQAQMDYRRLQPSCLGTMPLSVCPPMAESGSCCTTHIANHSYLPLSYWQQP
# Method: Test Example 2: Evaluation of Human c-Mpl-Introduced Ba/F3 Cell Proliferative Activity
# The human c-Mpl-introduced Ba/F3 cell proliferation action was measured by the following method.
# As a positive control, 1-(5-{[4-(4-chlorothiophen-2-yl)-5-{[(2R)-2-methylpyrrolidin-1-yl]methyl}-1,3-thiazol-2-yl]carbamoyl}-3-fluoropyridin-2-yl)piperidine-4-carboxylic acid hydrochloride disclosed as Example 315 in Patent Document 1, represented by the formula (A1) above, was used. Further, it is known that the compound has a good human c-Mpl-introduced Ba/F3 cell proliferative activity as disclosed in Table 1 in Patent Document 1.
# a) Construction of Vector Expressing Human c-Mpl Receptor
# A human c-Mpl receptor gene (GenBank Accession No.: M90102.1) was transfected into an expression vector pEF-BOS (Nucleic Acids Research, 18: pp 5322 (1990)).
# b) Construction of Cell Stably Expressing Human c-Mpl Receptor
# A vector expressing a human c-Mpl receptor was introduced into a Ba/F3 cell (RIKEN BRC: RCB0805). For the introduction, an electroporation method was used. pEF-BOS-c-mpl (10 μg), pSV2bsr (1 μg, Kaken Pharmaceutical Co., Ltd.) and 1×10^7 of Ba/F3 cells were put into cuvettes with a gap width of 0.4 cm and electroporated under a condition of 1.5 kV (25 μF) in a Gene Pulser (registered trademark) (BioRad). The cells were incubated in an RPMI-1640 medium supplemented with a 0.5% WEHI conditioned medium (BD Biosciences) and 10% fetal bovine serum for 3 days, and thereafter, and the cells were incubated for 30 days in an RPMI-1640 medium, to which 10 μg/mL blasticidin had been further added, thereby acquiring a drug-resistant clone.
# c) Measurement of Cell Proliferative Activity
# The cells obtained in b) above were dispensed into an RPMI-1640 medium supplemented with a 0.5% WEHI conditioned medium and 10% fetal bovine serum, and used. The day before the experiment, the test substances (final concentration of 100 nM to 10 μM) which had been dissolved in a medium for assay (an RPMI-1640 medium supplemented with 10% fetal bovine serum) were added to a 384-well plate (Model No. 781185, Greiner bio-one). The cells after the medium had been replaced with the medium for assay were dispensed to a 384-well plate to which the test substance had been added, to 1×10^4 cells/well, and incubated overnight at 37° C. and 5% CO2. On the experiment day, a solution of a Cell counting kit (Dojindo Laboratories) was added to each well of the 384-well plate, and the cells were incubated for about 5 hours at 37° C. and 5% CO2. Thereafter, the absorbance (an absorbance wavelength of 450 nm) of each well was measured using Safire^2 (registered trademark) (TECAN), and used as an index for the number of cells. Further, as a negative control, a well to which the test substances had not been added was prepared.
# By taking the absorbance of the well to which the test substance had been not added as 0% and taking the absorbance in a case where the positive control had been added to a final concentration of 1 μM as 100%, a cell proliferation rate (%) was calculated from the absorbance of the well to which the test substance had been added.
# [2] = biological target: human muscarinic M3 receptor (Homo sapiens, UniProt P20309)
# Sequence of human muscarinic M3 receptor (P20309 whole entry): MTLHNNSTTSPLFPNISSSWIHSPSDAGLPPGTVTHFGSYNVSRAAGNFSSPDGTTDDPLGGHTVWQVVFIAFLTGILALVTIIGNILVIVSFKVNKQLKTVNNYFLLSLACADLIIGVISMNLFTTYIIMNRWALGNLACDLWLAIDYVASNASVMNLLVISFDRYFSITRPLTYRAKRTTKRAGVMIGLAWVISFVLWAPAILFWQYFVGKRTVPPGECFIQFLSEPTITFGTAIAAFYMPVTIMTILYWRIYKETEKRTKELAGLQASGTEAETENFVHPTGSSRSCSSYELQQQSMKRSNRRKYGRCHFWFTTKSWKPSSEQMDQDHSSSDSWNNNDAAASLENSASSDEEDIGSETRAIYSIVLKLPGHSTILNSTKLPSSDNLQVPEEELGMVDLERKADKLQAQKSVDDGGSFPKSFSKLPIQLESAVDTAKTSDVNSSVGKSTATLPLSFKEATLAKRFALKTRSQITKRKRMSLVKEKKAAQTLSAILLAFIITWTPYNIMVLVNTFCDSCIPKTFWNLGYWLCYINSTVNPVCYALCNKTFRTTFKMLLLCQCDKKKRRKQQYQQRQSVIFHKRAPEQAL
SMILES,human c-Mpl-introduced Ba/F3 cell proliferative activity EC30 [1],"muscarinic M3 receptor-positive allosteric modulator activity, 1 μM (-fold shift) [2]","muscarinic M3 receptor-positive allosteric modulator activity, 10 μM (-fold shift) [2]"
COc1c(F)cc(-c2nc(NC(=O)c3cnc(N4CCN(CCC(=O)O)C[C@@H]4C)cn3)sc2CN2CCC[C@H]2C)cc1C(F)(F)F [Example 91],>10 µM,19 -fold shift,139 -fold shift
COc1c(F)cc(-c2nc(NC(=O)c3cnc(N4CCN(CCC(=O)O)C[C@H]4C)cn3)sc2CN2CCC[C@H]2C)cc1C(F)(F)F [Example 92],>10 µM,30 -fold shift,203 -fold shift
CCN(Cc1sc(NC(=O)c2cnc(N3CCN(CCC(=O)O)CC3)cn2)nc1-c1cc(F)cc(C(F)(F)F)c1)C(C)C [Example 106],>10 µM,41 -fold shift,270 -fold shift
C[C@@H]1CCCN1Cc1sc(NC(=O)c2cnc(N3CCN(CCC(=O)O)CC3)cn2)nc1-c1cc2ccccc2s1 [Example 132],>10 µM,15 -fold shift,41 -fold shift
C[C@@H]1CN(c2cnc(C(=O)Nc3nc(-c4cc(Cl)cs4)c(CN4CCC[C@H]4C)s3)cn2)CCN1CCC(=O)O [Example 79],1.8 µM,60 -fold shift,171 -fold shift
CCN(CC)Cc1sc(NC(=O)c2cnc(N3CCN(CC(=O)O)C[C@H]3C)cn2)nc1-c1cc(F)cc(C(F)(F)F)c1 [Example 118],>10 µM,57 -fold shift,167 -fold shift
CC(C(=O)O)N1CCN(c2cnc(C(=O)Nc3nc(-c4cc(Cl)cc(C(F)(F)F)c4)c(CN4CCC[C@H]4C)s3)cn2)CC1 (stereo partly drawn) [Example 12],>10 µM,33 -fold shift,178 -fold shift
C[C@@H]1CCCN1Cc1sc(NC(=O)c2cnc(N3CCN(CC(=O)O)CC3)cn2)nc1-c1cc(C(F)(F)F)cs1 [Example 103],1.7 µM,202 -fold shift,307 -fold shift
CC[C@@H]1CCCN1Cc1sc(NC(=O)c2cnc(N3CCN(CCC(=O)O)[C@@H](C)C3)cn2)nc1-c1cc(Cl)cs1 [Example 81],0.5 µM,89 -fold shift,94 -fold shift
CC[C@@H]1CCCN1Cc1sc(NC(=O)c2cnc(N3CCN(CC(=O)O)CC3)cn2)nc1-c1ccc(OC)c(C(F)(F)F)c1 [Example 41],>10 µM,43 -fold shift,160 -fold shift
C[C@@H]1CCCN1Cc1sc(NC(=O)c2cnc(N3CCN(CCC(=O)O)CC3)cn2)nc1-c1cc(Br)cc(C(F)(F)F)c1 [Example 27],>10 µM,31 -fold shift,330 -fold shift
CC(C)CN(C)Cc1sc(NC(=O)c2cnc(N3CCN(CCC(=O)O)CC3)cn2)nc1-c1cc(F)cc(C(F)(F)F)c1 [Example 107],>10 µM,73 -fold shift,318 -fold shift
C[C@@H]1CC[C@@H](C)N1Cc1sc(NC(=O)c2cnc(N3CCN(CCC(=O)O)[C@@H](C)C3)cn2)nc1-c1cc(Cl)cs1 [Example 126],>10 µM,79 -fold shift,318 -fold shift
C[C@@H]1CCCN1Cc1sc(NC(=O)c2cnc(N3CCN(CCC(=O)O)C[C@@H]3C)cn2)nc1-c1cc(F)cc(C(F)(F)F)c1 [Example 17],>10 µM,15 -fold shift,109 -fold shift
CN(Cc1sc(NC(=O)c2cnc(N3CCN(CCC(=O)O)CC3)cn2)nc1-c1cc(F)cc(C(F)(F)F)c1)CC1CC1 [Example 108],>10 µM,56 -fold shift,169 -fold shift
CC[C@@H]1CCCN1Cc1sc(NC(=O)c2cnc(N3CCN(CC(=O)O)CC3)cn2)nc1-c1cc(F)cc(C(F)(F)F)c1 [Example 62],>10 µM,37 -fold shift,195 -fold shift
C[C@@H]1CCCN1Cc1sc(NC(=O)c2cnc(N3CCN(CCC(=O)O)C[C@H]3C)cn2)nc1-c1cc(Br)cs1 [Example 101],2.7 µM,64 -fold shift,112 -fold shift
Cc1cc(-c2nc(NC(=O)c3cnc(N4CCN(CC(=O)O)CC4)cn3)sc2CN2CCC[C@H]2C)cc(C(F)(F)F)c1 [Example 71],>10 µM,28 -fold shift,151 -fold shift
C[C@@H]1CCCN1Cc1sc(NC(=O)c2cnc(N3CCN(CCC(=O)O)CC3)cn2)nc1-c1cc(Br)cs1 [Example 97],2.8 µM,55 -fold shift,121 -fold shift
C[C@@H]1CCCN1Cc1sc(NC(=O)c2cnc(N3CCN(CCC(=O)O)C[C@@H]3C)cn2)nc1-c1cc(C(F)(F)F)cs1 [Example 100],3.2 µM,82 -fold shift,229 -fold shift
COc1ncc(-c2nc(NC(=O)c3cnc(N4CCN(CCC(=O)O)CC4)cn3)sc2CN2CCC[C@H]2C)cc1C(F)(F)F [Example 33],>10 µM,40 -fold shift,182 -fold shift
